Read-outs that look alike come from different tables or passages of the source. Values belong to the compound of their own block, whether it stands above or below them.
Assays:
[1] = biological target: T1, His6-RORγt ligand binding domain (Homo sapiens, UniProt P51449); assay: TR-FRET coactivator recruitment assay; format: biochemical; details: for Dependence of coactivator recruitment inhibition on cholesterol: fixed concentrations of orthosteric agonist cholesterol
T1 sequence (P51449 269-508 limits assumed): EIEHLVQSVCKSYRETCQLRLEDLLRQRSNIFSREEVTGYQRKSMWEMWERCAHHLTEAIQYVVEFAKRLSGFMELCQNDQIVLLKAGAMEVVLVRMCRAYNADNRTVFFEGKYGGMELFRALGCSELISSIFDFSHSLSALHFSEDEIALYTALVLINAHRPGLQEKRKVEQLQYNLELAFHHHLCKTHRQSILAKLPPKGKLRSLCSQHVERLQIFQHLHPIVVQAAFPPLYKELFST
Experimental: In the present application the IC50 is determined according to a biochemical TR-FRET assay. […] A terbium labelled anti-His antibody (CisBio Bioassays, 61HISTLA) and D2-labelled streptavidin (CisBio Bioassays, 610SADLA) are used at the concentrations recommended by the supplier. Compounds (dissolved in DMSO) are titrated using a 2× dilution series in Corning white low volume, low binding, 384-well plates at a final volume of 10 μL The final DMSO concentration being 2% v/v throughout. […] The data is analyzed with Origin Software. The dose-response curve was fitted represented by:
Where y is the FRET ratio, A1 is the bottom asymptote, A2 is the top asymptote, p is the Hills slope and x is the ligand concentration.
The coactivator recruitment TR-FRET assay was performed in the presence of increasing fixed concentrations of cholesterol, a well characterized orthosteric agonist.
A terbium labelled anti-His antibody (CisBio Bioassays, 61HISTLA) and D2-labelled streptavidin (CisBio Bioassays, 610SADLA) were used at the concentrations recommended by the supplier. Compounds (dissolved in Dimethyl sulfoxide—DMSO) were titrated using a 2× dilution series from a highest final concentration of […] such that the final DMSO concentration was 2% v/v throughout.

His6-RORγt = biological target: T2, His6-RORγt (Homo sapiens, UniProt P51449); assay: Allosteric ligand displacement assay (AlexaFluor 647 probe, FRET); format: binding
T2 sequence (P51449 1-497 isoform P51449-2): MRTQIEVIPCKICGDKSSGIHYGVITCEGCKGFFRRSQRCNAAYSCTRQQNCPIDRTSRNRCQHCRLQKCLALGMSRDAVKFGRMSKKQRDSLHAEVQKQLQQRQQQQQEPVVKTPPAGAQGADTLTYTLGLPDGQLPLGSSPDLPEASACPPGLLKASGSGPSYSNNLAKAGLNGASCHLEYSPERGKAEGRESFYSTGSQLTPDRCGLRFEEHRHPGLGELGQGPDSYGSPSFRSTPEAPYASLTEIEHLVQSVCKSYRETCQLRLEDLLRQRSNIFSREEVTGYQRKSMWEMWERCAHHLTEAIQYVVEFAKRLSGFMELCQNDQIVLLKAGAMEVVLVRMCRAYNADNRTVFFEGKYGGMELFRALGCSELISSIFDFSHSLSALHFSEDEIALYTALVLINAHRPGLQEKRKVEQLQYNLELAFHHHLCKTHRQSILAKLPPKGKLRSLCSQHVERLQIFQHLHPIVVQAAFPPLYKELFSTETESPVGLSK
Description: To provide further evidence for allosteric ligand binding we used an orthogonal assay to directly probe for allosteric ligand binding (as opposed to measuring the indirect effects on coactivator recruitment).

[2] = Table 2, cholesterol concentration of 0 μM, read-out: IC50

Structure (SMILES): C[C@H]1O[C@@H](O[C@H]2[C@@H](O)C[C@H](O[C@H]3[C@@H](O)C[C@H](O[C@H]4CC[C@@]5(C)[C@H](CC[C@@H]6[C@@H]5C[C@@H](O)[C@]5(C)[C@@H](C7=CC(=O)OC7)CC[C@]65O)C4)O[C@@H]3C)O[C@@H]2C)C[C@H](O)[C@@H]1O [Compound C, reference compound]
Hill slope ([1]; 0 μM Cholesterol): −0.53 ± 0.03
IC50 ([1]; 0 μM Cholesterol, read-out: IC50): 0.774 ± 0.0816 µM
Hill slope ([1]; 0.1 μM Cholesterol): −0.54 ± 0.02
IC50 ([1]; 0.1 μM Cholesterol, read-out: IC50): 5.47 ± 0.456 µM
Hill slope ([1]; 1.0 μM Cholesterol): −0.87 ± 0.04
IC50 ([1]; 1.0 μM Cholesterol, read-out: IC50): 32.4 ± 1.69 µM
IC50 ([1]; as listed beside probe competition (0 μM cholesterol values), read-out: Coactivator Recruitment IC50): 0.774 ± 0.0816 µM
Dependence of coactivator recruitment inhibition on cholesterol [1]: cholesterol-dependent activity profile
IC50 (His6-RORγt; displacement of Alexa Fluor 647 probe, read-out: AlexaFluor Probe Competition IC50): > 5 µM
IC50 (His6-RORγt; read-out: IC50 for displacement of the Alexa Fluor 647 probe): > 50 µM

Structure (SMILES): O=C(O)c1ccc(S(=O)(=O)Nc2c(-c3c(Cl)cccc3C(F)(F)F)noc2-c2ccccc2)cc1 [GV031]
IC50 [1, 2]: 62.6 µM

Structure (SMILES): O=C(O)c1ccc(NCc2c(-c3c(Cl)cccc3C(F)(F)F)noc2-c2cc[nH]c2)cc1 [Compound 1]
Hill slope ([1]; 0 μM Cholesterol): −0.45 ± 0.02
Hill slope ([1]; 0.1 μM Cholesterol): −0.74 ± 0.03
Hill slope ([1]; 1.0 μM Cholesterol): −0.86 ± 0.03
Dependence of coactivator recruitment inhibition on cholesterol [1]: independent of increasing concentrations of cholesterol

Structure (SMILES): O=C(O)c1cccc(NC(=O)c2c(-c3c(Cl)cccc3C(F)(F)F)noc2-c2ccccc2)c1 [RD061]
IC50 [1, 2]: 73.9 µM

Structure (SMILES): O=C(O)c1ccc(/N=C/c2c(-c3c(Cl)cccc3C(F)(F)F)noc2-c2cc[nH]c2)cc1 [AS89]
IC50 [1, 2]: 46.6 µM

Structure (SMILES): O=C(O)c1ccc(NC(=O)c2c(-c3c(Cl)cccc3C(F)(F)F)noc2-c2ccccc2)cc1 [RD032]
IC50 [1, 2]: 53.5 µM

Structure (SMILES): O=C(O)c1ccc(NC(=O)c2c(-c3c(Cl)cccc3C(F)(F)F)noc2-c2ccccc2)cc1F [RD082]
IC50 [1, 2]: 91.1 µM

The remaining compounds from weak to strong by IC50 [1, 2], led by results:

IC50 [1, 2]: 30.9 µM
Structure (SMILES): O=C(O)c1ccc(CNc2c(-c3c(Cl)cccc3C(F)(F)F)noc2-c2ccccc2)cc1 [GV032]

IC50 [1, 2]: 9.6 µM
Structure (SMILES): O=C(O)c1ccc(NCc2c(-c3c(Cl)cccc3C(F)(F)F)noc2-c2ccccc2)cc1 [GV068]

IC50 [1, 2]: 8.8 µM
Structure (SMILES): O=C(O)c1ccc(CNC(=O)c2c(-c3c(Cl)cccc3C(F)(F)F)noc2-c2ccccc2)cc1 [RD065]

IC50 [1, 2]: 8.2 µM
Structure (SMILES): O=C(O)c1ccc(-c2c(-c3c(Cl)cccc3C(F)(F)F)noc2-c2ccccc2)cc1 [GV020]

IC50 [1, 2]: 6.6 µM
Structure (SMILES): O=C(O)c1ccc(NCc2c(-c3c(Cl)cccc3C(F)(F)F)noc2-c2cccc(O)c2)cc1 [RD369]

IC50 [1, 2]: 1.8 µM
Structure (SMILES): O=C(O)c1ccc(NCc2c(-c3c(Cl)cccc3C(F)(F)F)noc2-c2cccs2)cc1 [RD329]

IC50 [1, 2]: 1.1 µM
Structure (SMILES): O=C(O)c1ccc(NCc2c(-c3c(Cl)cccc3C(F)(F)F)noc2-c2ccco2)cc1 [RD149]

— patent US20210387973A1, “SUBSTITUTED HETEROCYCLIC COMPOUNDS AND THEIR USE AS RETINOID-RELATED ORPHAN RECEPTOR (ROR) GAMMA-T INHIBITORS” (Technische Universiteit Eindhoven, priority 2019, published 2021)
